Source: paper PMC12383145, “Fluorescent Peptides Internalize HeLa Cells and Kill Multidrug-Resistant Clinical Bacterial Isolates” (Antibiotics, 2025)
Values after ≈ are worked out from the molar mass of the structure shown. Values joined by “and” are separate entries in the source; they are usually repeats but may differ in a detail not shown here. Equal values may be shown once. Read-outs that look alike come from different tables or passages of the source. Non-standard residues stand in square brackets, D forms with d. Residues, ends and D or L forms follow the SMILES beside them. 2Abz = Nc1ccccc1C(=O)O

Key:
Format in all cases: cell-based
E. coli ATCC 25922 = settings: E. coli ATCC 25922
Method: (§1) The minimum inhibitory concentration (MIC) of the peptides was determined by the broth microdilution technique, according to the Clinical and Laboratory Standards Institute (CLSI) guidelines, as previously described. Briefly, bacterial strains were incubated in BHI broth at 37 °C until they reached the exponential growth phase, and inocula were adjusted to 5 × 10^6 CFU/mL using calibration curves. Serial dilutions of the peptides to be evaluated in 96-well plates were made in 90 µL of Mueller Hinton broth at concentrations ranging from 200 to 6.25 µg/mL, and 10 µL of the inoculum adjusted to 5 × 10^6 CFU/mL was added. Finally, the plates were incubated at 37 °C for 24 h, and the absorbance at 620 nm was read. As a negative control, CMH, distilled water, and 10 µL of inoculum were used; for the positive control, vancomycin was used for Gram-positive strains and ciprofloxacin for Gram-negative strains at the MICs dictated by the CLSI; as a technical control, CMH with peptone water was used, and for the growth control, CMH was used with 10 µL of inoculum.
(§2) To determine the minimum bactericidal concentration (MBC), the 96-well plates where the MIC was determined were used as a starting point. From these, an aliquot of the controls and those wells where no apparent bacterial growth was observed were spotted onto trypticase soy agar plates. The plates were incubated at 37 °C for 24 h, and the reading was taken, identifying the lowest concentration of the peptide where there was no bacterial growth as the MBC.

E. faecalis ATCC 29212 = settings: E. faecalis ATCC 29212
Method: as §1, §2

[1] = test system: K. pneumoniae ATCC 700603; settings: K. pneumoniae ATCC 700603
Method: as §1, §2

P. aeruginosa ATCC 27853 = settings: P. aeruginosa ATCC 27853
Method: as §1, §2

[2] = test system: S. aureus clinical isolate 11719; settings: S. aureus clinical isolate 11719
[3] = test system: E. coli clinical isolate 1004 (susceptible); settings: E. coli clinical isolate 1004
Method: (§3) E. coli isolates 1004 (susceptible), 129797 (resistant), and 301755 (MDR) were selected for evaluation. Isolate 1004 was sensitive to all antibiotics tested. […] These findings identify it as a multidrug-resistant (MDR) strain and an extended-spectrum beta-lactamase (ESBL)-producing bacterium. For S. aureus, isolates 109095, 117719, and 124653 were evaluated. All three were resistant to penicillin, indicating beta-lactamase production mediated by the blaZ gene. Studies have shown that up to 90% of S. aureus isolates worldwide are penicillin-resistant, which implies that this antibiotic is ineffective in infections caused by this pathogen. […] Isolate 124653 was resistant to penicillin, tetracycline, and erythromycin, with the latter belonging to the group of macrolides, antibiotics that inhibit protein synthesis through interaction with the 50S […] subunit. For E. faecalis three isolates were selected: strains 213 (sensitive to all the antibiotics tested), strain 82 (resistant to streptomycin), and strain 179 (resistant to gentamicin). These clinical isolates were selected to assess the antimicrobial activity of the peptide RWQWRWQWR and its analogues conjugated to fluorescent molecules in strains against strains with susceptibility profiles.
(§4) The analysis of synthesized peptides in ATCC reference strains and susceptible, resistant, and multidrug-resistant (MDR) clinical isolates was performed. The clinical isolates were obtained from the National Cancer Institute collection and were previously identified and antibiogrammed using the VITEK system. Additionally, the strains were characterized by MALDI-TOF. The strains were re-primed onto trypticase soy agar and subsequently preserved in Brain–Heart Infusion (BHI) broth containing 20% glycerol. For the MIC and MBC assays, the strains were reactivated and cultured in BHI until they reached their exponential growth phase.
as §1, §2

[4] = test system: E. coli clinical isolate 129797 (resistant); settings: E. coli clinical isolate 129797
Method: as §3, §4, §1, §2

[5] = test system: E. coli clinical isolate 301755 (MDR); settings: E. coli clinical isolate 301755
Method: as §3, §4, §1, §2

[6] = test system: E. faecalis clinical isolate 179; settings: E. faecalis clinical isolate 179
Method: as §3, §4, §1, §2

[7] = test system: E. faecalis clinical isolate 213; settings: E. faecalis clinical isolate 213
Method: as §3, §4, §1, §2

[8] = test system: E. faecalis clinical isolate 82; settings: E. faecalis clinical isolate 82
Method: as §3, §4, §1, §2

[9] = test system: S. aureus clinical isolate 109095; settings: S. aureus clinical isolate 109095
Method: as §3, §4, §1, §2

[10] = test system: S. aureus clinical isolate 124653; settings: S. aureus clinical isolate 124653
Method: as §3, §4, §1, §2

[11] = test system: clinical isolates of E. coli; settings: stated for all three E. coli clinical isolates
Method: as §3, §4, §1, §2

[12] = MTT cytotoxicity assay in HeLa cells; settings: human; HeLa cells, MTT; read-out: Cytotoxic Activity (IC50)
Method: MTT assays were conducted in HeLa cells to evaluate the effect of fluorescent probe incorporation on the in vitro cytotoxic activity of the parent non-conjugated peptides. The cytotoxic effect of peptides 1, Abz-1 RhB-1, 2, and RhB-2 in HeLa cells was peptide concentration-dependent, with the highest anticancer activity observed at 200 µg/mL. Incorporation of 2-Abz and RhB at the N-terminal end reduced cytotoxic activity, while the binding of 2-Abz at the C-terminal end or FAM at the N-terminal end drastically diminished anticancer activity (Table 4).

Hemolysis assay = test: Hemolysis assay
Method: Whole blood was collected into EDTA tubes and centrifuged at 2500 rpm for 10 min. The plasma and buffy coat were removed, and the erythrocytes were washed three times with 0.9% saline to yield a 4% cell suspension. In 96-well plates, 100 µL of peptide dilutions (6.25–200 µg/mL) were prepared in triplicate, and 100 µL of the erythrocyte suspension was added (final hematocrit 2%). Plates were incubated at 37 °C for 2 h, and then centrifuged again at 2500 rpm for 10 min. A 100 µL aliquot of the supernatant was transferred to a fresh plate, and absorbance was measured at 450 nm. Saline and 1× Triton X-100 served as the negative and positive controls, respectively. Hemolysis (%) was calculated as follows: %hemolysis=treatment absorbance−saline absorbance/1×triton absorbance−saline absorbance

## N=C(N)NCCC[C@H](NC(=O)[C@H](Cc1c[nH]c2ccccc12)NC(=O)[C@H](CCC(N)=O)NC(=O)[C@H](Cc1c[nH]c2ccccc12)NC(=O)[C@H](CCCNC(=N)N)NC(=O)[C@H](Cc1c[nH]c2ccccc12)NC(=O)[C@H](CCC(N)=O)NC(=O)[C@H](Cc1c[nH]c2ccccc12)NC(=O)[C@@H](N)CCCNC(=N)N)C(=O)Nc1ccccc1C(N)=O [1-Abz, RWQWRWQWR-(2-Abz)] (H-RWQWRWQWR[2Abz]-NH2)
E. coli ATCC 25922
  Minimal bactericidal concentration (MBC): 62 µM (≈ 99.6 µg/mL)
  Minimal inhibitory concentration (MIC): 62 µM (≈ 99.6 µg/mL)
E. faecalis ATCC 29212
  Minimal bactericidal concentration (MBC): > 125 µM
  Minimal inhibitory concentration (MIC): 125 µM (≈ 201 µg/mL)
[1]
  Minimal bactericidal concentration (MBC): 125 µM (≈ 201 µg/mL)
  Minimal inhibitory concentration (MIC): 125 µM (≈ 201 µg/mL)
P. aeruginosa ATCC 27853
  Minimal bactericidal concentration (MBC): > 125 µM
  Minimal inhibitory concentration (MIC): 125 µM (≈ 201 µg/mL)
[2]
  Minimal bactericidal concentration (MBC): 125 µM (≈ 201 µg/mL)
  Minimal inhibitory concentration (MIC): 125 µM (≈ 201 µg/mL)
[3]
  Minimal bactericidal concentration (MBC): 125 µM (≈ 201 µg/mL)
  Minimal inhibitory concentration (MIC): 62 µM (≈ 99.6 µg/mL)
[4]
  Minimal bactericidal concentration (MBC): 125 µM (≈ 201 µg/mL)
  Minimal inhibitory concentration (MIC): 62 µM (≈ 99.6 µg/mL)
[5]
  Minimal bactericidal concentration (MBC): 125 µM (≈ 201 µg/mL)
  Minimal inhibitory concentration (MIC): 62 µM (≈ 99.6 µg/mL)
[6]
  Minimal bactericidal concentration (MBC): > 125 µM
  Minimal inhibitory concentration (MIC): > 125 µM
[7]
  Minimal bactericidal concentration (MBC): > 125 µM
  Minimal inhibitory concentration (MIC): > 125 µM
[8]
  Minimal bactericidal concentration (MBC): > 125 µM
  Minimal inhibitory concentration (MIC): > 125 µM
[9]
  Minimal bactericidal concentration (MBC): 125 µM (≈ 201 µg/mL)
  Minimal inhibitory concentration (MIC): 125 µM (≈ 201 µg/mL)
[10]
  Minimal bactericidal concentration (MBC): > 125 µM
  Minimal inhibitory concentration (MIC): 125 µM (≈ 201 µg/mL)
[11]
  MBC: 125 µM (≈ 201 µg/mL)
[12]
  IC50: > 200 µg/mL and > 125 µM
Hemolysis assay; at 200 µg/mL (highest tested concentration), 2 h, 37 °C, read-out: hemolysis
  hemolysis at 2 h: 1.5%
Hemolysis assay; at the lowest MIC concentration, read-out: Percentage of hemolysis
  hemolysis at 2 h: 0.9%
